Assay results: ChEMBL document CHEMBL4371036, “Discovery and structure-activity relationship of imidazolinylindole derivatives as kallikrein 7 inhibitors” (Bioorg Med Chem Lett, 2019)

Columns and labels:
[1] = molecular target: Kallikrein-7 (Homo sapiens, UniProt P49862); experiment: Inhibition of thermolysin activated recombinant human C-terminal 10-His tagged KLK7 (E23 to H252 residues) using MOCAc-Arg-Pro-Lys-Pro-Val-Glu-Nva-Trp-Arg-Lys(Dnp)-NH2 as substrate preincubated for 10 mins followed by substrate addition and measured after 30 mins by fluorescence analysis
[2] = molecular target: Kallikrein-7 (Mus musculus, UniProt Q91VE3); experiment: (§1) Inhibition of enterokinase activated recombinant mouse C-terminal His6-tagged KLK7 (Gln22 to Arg249 residues) using MOCAc-Arg-Pro-Lys-Pro-Val-Glu-Nva-Trp-Arg-Lys(Dnp)-NH2 as substrate preincubated for 10 mins followed by substrate addition and measured after 30 mins by fluorescence analysis
[3] = molecular target: Kallikrein-7 (Mus musculus) (UniProt Q91VE3); experiment: as §1, with “residues) at 100 uM” for “residues)”, “analysis relative to control” for “analysis”
Sequence of Kallikrein-7 (Mus musculus) (Q91VE3 whole entry): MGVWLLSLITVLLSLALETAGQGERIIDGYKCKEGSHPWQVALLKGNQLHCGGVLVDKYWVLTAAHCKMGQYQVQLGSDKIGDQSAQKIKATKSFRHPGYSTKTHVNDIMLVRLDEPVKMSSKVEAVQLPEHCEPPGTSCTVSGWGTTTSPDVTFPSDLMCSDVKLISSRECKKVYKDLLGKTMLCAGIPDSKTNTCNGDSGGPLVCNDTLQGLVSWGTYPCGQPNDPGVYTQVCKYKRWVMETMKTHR

Sequence of Kallikrein-7 (Homo sapiens, UniProt P49862) (P49862 whole entry, the tested form may be a part): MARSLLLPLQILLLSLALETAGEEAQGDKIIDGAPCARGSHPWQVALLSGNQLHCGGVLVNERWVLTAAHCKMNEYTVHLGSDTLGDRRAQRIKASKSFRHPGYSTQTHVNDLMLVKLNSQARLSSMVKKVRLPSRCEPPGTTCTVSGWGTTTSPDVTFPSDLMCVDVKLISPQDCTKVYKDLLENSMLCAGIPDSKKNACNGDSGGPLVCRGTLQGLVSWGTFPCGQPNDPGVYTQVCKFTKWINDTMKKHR
Sequence of Kallikrein-7 (Mus musculus, UniProt Q91VE3) (Q91VE3 whole entry): as the sequence (Q91VE3 whole entry) above

CC1=NC(c2cn(S(=O)(=O)c3c(Cl)cccc3Cl)c3ccc(C)cc23)CN1 (configuration not stated) was tested. Which IC50 [1] did it give?
Its IC50 is 14 µM.

What about the IC50 [2] of the same molecule?
Its IC50 is 10 µM.

CCC1=NC(c2cn(S(=O)(=O)c3ccc(C)cc3)c3ccccc23)CN1 (configuration not stated) was tested. Which IC50 [1] did it give?
The IC50 was 24 µM.

CC1=NC(c2cn(S(=O)(=O)c3ccccc3C#N)c3ccc(C)cc23)CN1 (configuration not stated) was tested. Which IC50 [1] did it give?
Its IC50 is 6.7 µM.

What about the IC50 [2] of the same molecule?
The IC50 was 11 µM.

What does the source list for CC1=NC(c2cn(S(=O)(=O)c3ccccc3Cl)c3ccc(C)cc23)CN1 (configuration not stated)?
IC50 [1]: 1.2 µM; IC50 [2]: 1.5 µM

Which IC50 [1] does the source give for CC1=NC(c2cn(S(=O)(=O)c3ccc(Cl)cc3)c3ccccc23)CN1 (configuration not stated) here?
The IC50 was 5.7 µM.

What about the inhibition [3] of the same molecule?
The inhibition was 17%.

How did the IC50 [1] turn out when CC1=NC(c2cn(S(=O)(=O)c3ccc(Cl)cc3)c3ccccc23)CN1C (configuration not stated) was run?
The IC50 was over 30 µM.

With CC1=NC(c2cn(S(=O)(=O)c3ccc(Cl)cc3)c3ccc(Br)cc23)CN1 (configuration not stated) as the molecule, how does the IC50 [1] read?
Its IC50 is 4.7 µM.

And the inhibition [3]?
Its inhibition is 35%.

Which IC50 [1] does the source give for CC1=NC(c2cn(S(=O)(=O)c3ccc(F)cc3)c3ccc(C)cc23)CN1 (configuration not stated) here?
Its IC50 is 9.4 µM.

What about the IC50 [2] of the same molecule?
The IC50 was over 30 µM.

With CC1=NC(c2cn(S(=O)(=O)c3ccccc3)c3ccc(C)cc23)CN1 (configuration not stated) as the molecule, how does the IC50 [1] read?
The IC50 was 17 µM.

What about the IC50 [2] of the same molecule?
The IC50 was 15 µM.

With CC1=NC(c2cn(S(=O)(=O)c3ccc(C)cc3)c3ccccc23)CN1 (configuration not stated) as the molecule, how does the IC50 [1] read?
Its IC50 is 10 µM.

And the inhibition [3]?
The inhibition was 14%.

With Cc1ccc(S(=O)(=O)n2cc(C3CNC(C4CCCCC4)=N3)c3ccccc32)cc1 (configuration not stated) as the molecule, how does the IC50 [1] read?
Its IC50 is over 100 µM.

With CC1=NC(c2cn(S(=O)(=O)c3ccccc3F)c3ccc(C)cc23)CN1 (configuration not stated) as the molecule, how does the IC50 [1] read?
Its IC50 is 4.1 µM.

What about the IC50 [2] of the same molecule?
Its IC50 is 6.4 µM.

Which results are given for CC1=NC(c2cn(S(=O)(=O)c3ccccc3C)c3ccc(C)cc23)CN1 (configuration not stated)?
IC50 [1]: 1 µM; IC50 [2]: 1.3 µM

With CC1=NC(c2cn(S(=O)(=O)c3ccc(Cl)cc3)c3ccc(C)cc23)CN1 (configuration not stated) as the molecule, how does the IC50 [1] read?
The IC50 was 1.9 µM.

What about the inhibition [3] of the same molecule?
The inhibition was 33%.

What about the IC50 [2] of the same molecule?
Its IC50 is over 100 µM.

For CC1=NC(c2cn(S(=O)(=O)c3ccccc3Br)c3ccc(C)cc23)CN1 (configuration not stated), which IC50 [1] is on record?
Its IC50 is 0.39 µM.

What about the IC50 [2] of the same molecule?
The IC50 was 0.4 µM.

CC1=NC(c2cn(S(=O)(=O)c3cccc(Cl)c3)c3ccc(C)cc23)CN1 (configuration not stated) was tested. Which IC50 [1] did it give?
Its IC50 is 30 µM.

And the IC50 [2]?
Its IC50 is 10 µM.

With CC1=NC(c2cn(S(C)(=O)=O)c3ccccc23)CN1 (configuration not stated) as the molecule, how does the IC50 [1] read?
Its IC50 is over 100 µM.

Which IC50 [1] does the source give for CC1=NC(c2cn(S(=O)(=O)c3cccs3)c3ccc(C)cc23)CN1 (configuration not stated) here?
Its IC50 is 11 µM.

What about the IC50 [2] of the same molecule?
The IC50 was 22 µM.

With CC1=NC(c2cn(Cc3ccc(Cl)cc3)c3ccccc23)CN1 (configuration not stated) as the molecule, how does the IC50 [1] read?
Its IC50 is 22 µM.

With Cc1ccc(S(=O)(=O)n2cc(C3CNC(C(C)C)=N3)c3ccccc32)cc1 (configuration not stated) as the molecule, how does the IC50 [1] read?
The IC50 was 70 µM.

What does the source list for CC1=NC(c2cn(S(=O)(=O)c3cccc(Cl)c3)c3ccccc23)CN1 (configuration not stated)?
IC50 [1]: > 30 µM; inhibition [3]: 77%
